Reference: PMC11164811 (Investigational New Drugs, 2024)
Read-outs that look alike come from different tables or passages of the source.

Columns and labels:
[1] = tested on: patients with advanced or metastatic solid tumors; test: Dose-limiting toxicities during first 21 days, phase 1b MK-5618-001; format: in vivo, human; settings: selumetinib twice daily 2 weeks on/1 week off in combination with pembrolizumab
From the text: At least 3 patients were enrolled at each dose level; the modified toxicity probability interval (mTPI) design, with a target dose-limiting toxicity (DLT) rate of ~30%, was used to identify a potential maximum tolerated dose. Dose escalation and de-escalation decisions were based on the mTPI design and were dependent on the number of patients enrolled and number of DLTs observed at the particular dose level (Online Resource 1). Dose finding was considered complete after 14 patients were enrolled at any of the tested dose levels and the decision was made to stay at that dose level.
(§1) No formal hypothesis testing was planned.
Any treatment-related toxicity that causes the patient to discontinue treatment during cycle 1 […]
Cardiac disorders including
• Absolute decrease in left ventricular ejection fraction >10% compared with baseline and below the institution’s lower limit of normal • Grade ≥3 left ventricular systolic dysfunction
• Other cardiac disorders grade ≥3
Vascular disorders including
• Grade ≥3 hypertension requiring >1 drug or more intensive therapy […]
assessment. […] The occurrence of any of the toxicities listed in this table was considered a dose-limiting toxicity if assessed by the investigator to be possibly, probably , or definitely related

[2] = Plasma pharmacokinetics of selumetinib and N-desmethyl selumetinib on day 1 of cycle 1; format: in vivo, human
From the text: Additional predose samples were collected on days 1 and 14 of cycle 2 and on days 1 and 14 of cycle 5.
as §1

Structure (SMILES) | Maximum tolerable dose level [1] | half-life ([2]; human, in vivo, day 1 of cycle 1, selumetinib 50-125 mg, read-out: Observed t1/2, range across dose levels) | half-life ([2]; human, in vivo, plasma, day 1 of cycle 1, Selumetinib 125 mg + Pembrolizumab 200 mg, n = 11, geometric mean (% geometric CV), read-out: t1/2 (converted)) | AUC0‒last ([2]; plasma, day 1 of cycle 1, Selumetinib 125 mg + Pembrolizumab 200 mg, n = 14, geometric mean (% geometric CV)) | Observed t1/2, range across dose levels ([2]; human, in vivo)
Cn1cnc2c(F)c(Nc3ccc(Br)cc3Cl)c(C(=O)NOCCO)cc21 [Selumetinib, selumetinib] | exceeds 125 mg | 2.82 to 3.82 h | 2.82 h | 4430 (57.6) h · ng/mL | –
O=C(NOCCO)c1cc2nc[nH]c2c(F)c1Nc1ccc(Br)cc1Cl [N-Desmethyl selumetinib, N-desmethyl selumetinib] | – | – | – | – | 3.07 to 3.94 h
